ChEMBL document CHEMBL5724796, “Tm Shift (DSF) assay results for EUbOPEN Chemogenomics Library” (2024)
Non-standard residues stand in square brackets, D forms with d. Residues, ends and D or L forms follow the SMILES beside them. *: point of attachment. Nle = CCCC[C@H](N)C(=O)O; Cbz = O=C(OCc1ccccc1)*; Boc = CC(C)(C)OC(=O)*; CH2F = FC*

Key:
Peregrin (Homo sapiens) = molecular target: T1, Peregrin (Homo sapiens) (UniProt P55201); details: Compound concentration 20.0 uM
T1 sequence (whole entry): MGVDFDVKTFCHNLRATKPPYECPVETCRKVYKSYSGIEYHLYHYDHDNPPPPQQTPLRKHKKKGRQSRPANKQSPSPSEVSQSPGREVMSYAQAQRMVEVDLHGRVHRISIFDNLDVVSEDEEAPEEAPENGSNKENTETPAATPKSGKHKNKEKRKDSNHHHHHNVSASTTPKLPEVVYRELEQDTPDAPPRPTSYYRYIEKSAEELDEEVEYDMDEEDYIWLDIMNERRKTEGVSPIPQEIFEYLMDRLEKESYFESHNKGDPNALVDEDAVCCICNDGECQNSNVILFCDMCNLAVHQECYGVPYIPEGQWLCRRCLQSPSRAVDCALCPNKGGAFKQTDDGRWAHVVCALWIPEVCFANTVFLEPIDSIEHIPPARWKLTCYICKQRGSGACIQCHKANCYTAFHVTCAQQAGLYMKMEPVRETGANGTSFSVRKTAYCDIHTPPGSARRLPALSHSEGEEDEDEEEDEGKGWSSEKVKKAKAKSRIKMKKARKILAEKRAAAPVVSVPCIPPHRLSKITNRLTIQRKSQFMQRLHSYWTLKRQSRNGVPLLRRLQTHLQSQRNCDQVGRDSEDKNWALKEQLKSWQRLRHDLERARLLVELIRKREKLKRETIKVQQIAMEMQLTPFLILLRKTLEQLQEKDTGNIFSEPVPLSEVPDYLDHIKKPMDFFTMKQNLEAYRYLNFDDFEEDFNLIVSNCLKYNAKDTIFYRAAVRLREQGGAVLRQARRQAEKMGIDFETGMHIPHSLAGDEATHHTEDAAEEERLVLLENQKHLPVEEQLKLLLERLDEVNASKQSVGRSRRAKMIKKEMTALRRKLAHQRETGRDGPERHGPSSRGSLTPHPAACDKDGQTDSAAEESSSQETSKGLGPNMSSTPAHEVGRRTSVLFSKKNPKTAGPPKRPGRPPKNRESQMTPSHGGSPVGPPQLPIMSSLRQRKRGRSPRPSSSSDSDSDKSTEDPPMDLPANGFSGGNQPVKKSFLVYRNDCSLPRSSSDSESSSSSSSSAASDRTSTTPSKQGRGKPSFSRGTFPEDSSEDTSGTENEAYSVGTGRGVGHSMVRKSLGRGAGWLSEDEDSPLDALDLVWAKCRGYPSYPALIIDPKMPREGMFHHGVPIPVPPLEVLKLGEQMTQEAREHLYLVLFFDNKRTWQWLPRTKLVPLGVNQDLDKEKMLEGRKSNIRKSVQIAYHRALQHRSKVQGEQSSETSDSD

[1] = molecular target: Fibroblast growth factor receptor 2 (Homo sapiens) (UniProt P21802); details: Compound concentration 20.0 uM
Fibroblast growth factor receptor 2 (Homo sapiens), sequence (P21802 22-821 limits assumed): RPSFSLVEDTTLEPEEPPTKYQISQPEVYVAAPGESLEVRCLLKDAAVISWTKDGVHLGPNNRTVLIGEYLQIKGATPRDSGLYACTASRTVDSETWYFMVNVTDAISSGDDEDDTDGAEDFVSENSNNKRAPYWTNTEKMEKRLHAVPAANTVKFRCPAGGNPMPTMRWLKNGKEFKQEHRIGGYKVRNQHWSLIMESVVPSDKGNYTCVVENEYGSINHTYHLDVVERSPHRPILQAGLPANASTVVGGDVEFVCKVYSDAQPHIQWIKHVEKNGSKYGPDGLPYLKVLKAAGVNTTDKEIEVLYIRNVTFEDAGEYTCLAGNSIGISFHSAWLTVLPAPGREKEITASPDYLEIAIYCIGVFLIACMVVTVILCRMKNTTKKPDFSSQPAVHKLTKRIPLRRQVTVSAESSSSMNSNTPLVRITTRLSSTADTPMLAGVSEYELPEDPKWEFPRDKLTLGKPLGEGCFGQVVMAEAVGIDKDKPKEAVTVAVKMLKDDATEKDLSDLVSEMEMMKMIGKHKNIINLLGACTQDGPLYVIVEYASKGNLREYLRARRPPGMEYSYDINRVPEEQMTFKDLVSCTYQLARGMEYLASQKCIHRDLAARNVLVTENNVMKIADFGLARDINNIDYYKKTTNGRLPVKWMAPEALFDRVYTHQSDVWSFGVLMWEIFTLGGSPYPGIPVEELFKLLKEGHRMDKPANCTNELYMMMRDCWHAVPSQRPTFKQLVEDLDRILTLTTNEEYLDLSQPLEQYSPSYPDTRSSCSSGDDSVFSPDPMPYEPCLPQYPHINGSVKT
Description: Thermal Shift Assay. Domain: start/stop: T457-E768

Structure (SMILES)	ΔTm (Peregrin (Homo sapiens)) [°C]	ΔTm [1] [°C]
Cc1cc(C)c(CNC(=O)c2cc(-c3ccc(N4CCN(C)CC4)nc3)cc3c2c(C)cn3C(C)C)c(=O)[nH]1	-1.27	0.85
CNCCCN1c2ccccc2CCc2ccccc21	1.05	-0.25
Cc1ccc2[nH]c(-n3nc(C)c(Cc4ccccc4)c3O)nc2c1	0.31	-0.11
O=C(CCl)Nc1ccc(S(=O)(=O)c2ccc(NC(=O)CCl)cc2)cc1	0.78	0.88
O=c1[nH][nH]c(=O)c2cc(OCC3CCCCC3)ccc12	2.63	1.11
CCOc1ccc(Cc2cc([C@]34OC[C@](CO)(O3)[C@@H](O)[C@H](O)[C@H]4O)ccc2Cl)cc1	0.95	0.47
COc1cc(Nc2ncc(F)c(Nc3ccc4c(n3)N(COP(=O)(O)O)C(=O)C(C)(C)O4)n2)cc(OC)c1OC	-0.81	4.69
CC1=NN(c2ccc(C(=O)O)cc2)C(=O)/C1=C/c1ccc(-c2cc(C)c(C)cc2[N+](=O)[O-])o1	-1.58	0.86
CCCC[C@@H](C=O)NC(=O)[C@H](CC(C)C)NC(=O)[C@H](CC(C)C)NC(C)=O (Ac-Leu-Leu-[Nle]-aldehyde)	-1.4	0.84
COc1cc2c(NC3CCN(C)CC3)cc(-c3ccc(C)o3)nc2cc1OCCCN1CCCC1	-0.96	0.85
Cc1ccc2c(c1)nc(/C=C/c1cccc3cccnc13)n2-c1cccc(OCCCN2CCN(C)CC2)c1	0.16	0.24
CC(C)(C)OC(=O)N1CCC[C@H]1C(=O)N1CCC[C@H]1C=O (Boc-Pro-Pro-aldehyde)	-0.14	0.01
COC(=O)CC[C@H](NC(=O)[C@H](Cc1c[nH]c2ccccc12)NC(=O)OCc1ccccc1)C(=O)N[C@@H](Cc1cnc[nH]1)C(=O)N[C@@H](CC(=O)OC)C(=O)CF (Cbz-WE(OMe)HD(OMe)-CH2F)	-1.05	0.1
COC(=O)C[C@@H]1N=C(c2ccc(Cl)cc2)c2c(sc(C)c2C)-n2c(C)nnc21	-0.95	0.53
O=C(NCc1ccc(Cl)cc1)C1CCN(S(=O)(=O)c2cc(Cl)cc(Cl)c2)CC1	1.09	-0.34
O=C(C1CC1)N1CCN(Cn2sc3ccccc3c2=O)CC1	-1.36	0.46
Cc1[nH]c2c(N3CCCCC3)c(-c3ccccc3)nn2c(=O)c1-c1ccc(O)cc1	-0.91	0.5
O=C1C(P(=O)(O)O)CCCN1O (centres undefined)	-1.07	0.23
N#Cc1ccc(Nc2cnccc2SCc2ccccc2C(=O)O)c2ccccc12	1.8	0.49
CC1(C)CC[C@]2(C(=O)O)CC[C@]3(C)C(=CC[C@@H]4[C@@]5(C)C=C(O)C(=O)C(C)(C)[C@@H]5CC[C@]43C)[C@@H]2C1	2.32	0
CC(C)(C)C1CCN(C(=O)n2ncc(C(O)(c3ccccc3)c3ccccc3)n2)CC1	-4.31	-3.22

Structure (SMILES)	ΔTm (Peregrin (Homo sapiens)) [°C]	ΔTm [1] [°C]
Cc1cc(C)nc(SCC(=O)Nc2ncc(Cc3cccc(OCc4cn(Cc5ccccc5)nn4)c3)s2)n1	-1.46	-10.7
Cc1nc(-c2cnn(C)c2-c2ccc(C(F)(F)F)cn2)c2c(N3CCC3)ncnn12	0.67	0.06
O=C(c1ccc2[nH]ccc2c1)N1CCN(S(=O)(=O)c2ccc3[nH]c(=O)oc3c2)CC1	-0.16	1.77
N=C(N)NC(=O)c1cnn(-c2cccc3ncccc23)c1C1CC1	-0.17	-0.51
CCCC[C@]1(CC)CS(=O)(=O)c2cc(CNC(CC(=O)O)CC(=O)O)c(OC)cc2[C@@H](c2ccccc2)N1	1.87	0.6
CC(C)(O)c1ccc(-c2nc3c(F)cc(F)cc3c(=O)[nH]2)cc1	-0.9	-3.32
CCCNC(=O)[C@H]1O[C@@H]1C(=O)N[C@H](C(=O)N1CCC[C@H]1C(=O)O)[C@@H](C)CC	-2.2	0.07
Cc1cc(C(=O)CN2CCCCC2)c(C)n1-c1ccc(Cl)cc1	-1.17	-0.09
Cc1cc2cc(NS(=O)(=O)c3ccc(C#N)cc3)ccc2n(C)c1=O	8.89	0.4
c1ccc(Cn2c(-c3ccc(OC[C@H](C4CCNCC4)n4c(-c5ccccc5)nc5ccccc54)cc3)nc3ccccc32)cc1	-5.25	-8.18
Cc1ncccc1-c1cnc(NCc2c(F)ccc3c2CCO3)n2cnnc12	-0.54	-0.09
C[C@H](Nc1cc(Cl)nc2c1cnn2[C@@H]1O[C@H](COP(=O)(O)CP(=O)(O)O)[C@@H](O)[C@H]1O)c1ccccc1F	-1.02	0.2
CC(C)(CNC(=O)c1cccc(-c2noc(C(F)(F)F)n2)c1)c1coc(-c2ccccc2)n1	-1.34	0.16
CN(C)CCCN(CC[C@H](N)C(=O)O)C[C@H]1O[C@@H](n2cnc3c(N)ncnc32)[C@H](O)[C@@H]1O	-1.18	-1.19
O=S(=O)(CSc1nnc(Br)n1Cc1ccc(Br)c2ccccc12)Nc1cccnc1	1.59	-0.32
CCCCN(Cc1ccc(C(=O)NO)cc1)C(=O)Nc1ccccc1	-0.92	-0.44
CCCOc1ccc(NC(=O)CN2CCN(C)CC2)cc1-c1nc(CC)c(CC)c(=O)[nH]1	1.24	-0.52
COc1cc2c(cc1-c1c(C)noc1C)[nH]c1nc(C)nc(-c3ccnc4ccccc34)c12	1.04	-1.02
CC(C)NCC(O)COC(Cn1c2ccccc2c2ccccc21)Cn1c2ccccc2c2ccccc21 (centres undefined)	-1.15	0.48
C[C@H](NC(=O)CCc1nc2ccccc2c(=O)[nH]1)c1ccccc1	-0.15	0.69
Cc1ccc(N2C(=O)/C(=C/C=C/c3ccco3)C(=O)NC2=S)cc1Cl	-2.31	-1.72

Structure (SMILES)	ΔTm (Peregrin (Homo sapiens)) [°C]	ΔTm [1] [°C]
O=C(Nc1c[nH]nc1C(=O)NC1CCNCC1)c1cc(F)cc(F)c1	-3.15	0.46
O=C(c1cc(Cl)c(O)c(Cl)c1)N1CS(=O)(=O)c2ccccc21	1.35	0.39
CCNC(=O)NCCSC[C@H]1O[C@@H](n2cnc3c(N)ncnc32)[C@H](O)[C@@H]1O	-1.31	0.95
CN(C)Cc1ccc(-c2nc3cccc4c3n2CCNC4=O)cc1	0.88	0.73
COc1cc2c(cc1OC)[C@H]1C[C@@H](OC(=O)[C@@H](N)C(C)C)[C@H](CC(C)C)CN1CC2	-1.11	0.33
C[C@H](N)C(=O)N1C[C@H](CCCB(O)O)[C@](N)(C(=O)O)C1	-0.07	0.25
Cn1c(OC[C@H]2CC[C@H](C(F)(F)F)CC2)nn2c(C3CCOCC3)ncc2c1=O	2.25	-0.94
Cn1nc2c(=O)n(CC3(O)CCN(C(=O)C[C@H](c4ccccc4)C(F)(F)F)CC3)cnc2c1-c1ccc(CN)cc1	1.89	-0.7
Cn1cc(C(=O)Nc2ccc([C@@H]3C[C@H]3NCC3CC3)cc2)cn1	0.16	-0.53
CC(C)Nc1cc(-c2c[nH]c(C(=O)N[C@H](CO)c3cccc(Cl)c3)c2)c(Cl)cn1	0.61	0.33
O=C(O)/C(S)=C/c1ccc(I)cc1	-1.4	-1
COc1cc2c(NC3CCN(C4CCCCC4)CC3)nc(N3CCCN(C(C)C)CC3)nc2cc1OCCCN1CCCCC1	-1.05	0.34
CN1C[C@@H]2[C@H](C1)[C@H]2CN(Cc1ccc(F)c(Cl)c1)C(=O)c1cn(C)cn1	1.67	0.05
CCCSc1nc2c(c(=O)n1-c1ccccc1)SCC2	0.27	0.36
CCc1oc2ccccc2c1C(=O)c1cc(Br)c(O)c(Br)c1	-11	-1.86
Cc1c(CN2CCC(Nc3ncnc4sc(CC(F)(F)F)cc34)CC2)ccc2[nH]c(C#N)cc12	-2.53	0.11
CSc1cccc(Nc2ncc3cc(-c4c(Cl)cccc4Cl)c(=O)n(C)c3n2)c1	-0.8	-0.92
COc1cc(C(=O)NCC2(N(C)C)CCCC2)cc(OC)c1OCc1ccccc1	2.2	0.12
CS(=O)(=O)N1CCN(C(=O)c2cnc3ccc(Cl)cc3c2-c2ccc(C3(C#N)CC3)cc2)CC1	1.84	0.34
CN(CCCCCCNc1ccnc2cc(Cl)ccc12)CCCCCCNc1ccnc2cc(Cl)ccc12	0.99	0.43
